The structures appear in SMILES notation. Several values for one entry are separate records, joined by “and”; a condition that tells them apart may be missing. Identical values can stand only once.

By inhibition is commonly meant the relative decrease from the control value, in per cent. As a reminder, the EC50 is the midpoint of the concentration-response curve. One may read the IC50 as the point on the concentration scale where inhibition reaches its midpoint. A low value points to higher potency.

Experiment [1] addresses T1, human CB1 receptor (Homo sapiens, UniProt P21554). In words: Functional cell-based assay, CB1 receptor mediated change in CRE β-gal expression (adenylate cyclase activity). Also on record: expressed in transfected cells; host or cells: SK-NC cells [sic], pcDNA3-CRE β-gal and pcDNA3 CB-1 (human). Particulars: for inhibition at 1 µM: test concentration 1 μM, where an EC50 was not obtained, read-out: CB1 functional percent inhibition. The text has this: Functional Cell-Based Assay for CB1 or CB2 Agonist and Inverse Agonist Effects on Intra-Cellular Adenylate Cyclase Activity
The CB1 and CB2 receptors are G-protein coupled receptors (GPCR), which influence cell function via the Gi-protein. These receptors modulate the activity of intracellular adenylate cyclase, which in turn produces the intracellular signal messenger cyclic-AMP (cAMP).
At baseline, or during non-ligand bound conditions, these receptors are constitutively active and tonically suppress adenylate cyclase activity. The binding of an agonist causes further receptor activation and produces additional suppression of adenylate cyclase activity. The binding of an inverse agonist inhibits the constitutive activity of the receptors and results in an increase in adenylate cyclase activity.
By monitoring intracellular adenylate cyclase activity, the ability of compounds to act as agonists or inverse agonists can be determined.
Test compounds were evaluated in SK-NC cells which, using standard transfection procedures, were stably transfected with human cDNA for pcDNA3-CRE β-gal and pcDNA3 CB-1 (human) or pcDNA3 CB-2 (human). By expressing CRE β-gal, the cells produced β-galactosidase in response to CRE promoter activation by cAMP. Cells expressing CRE β-gal and either the human CB1 or CB2 receptor will produce less β-galactosidase when treated with a CB1/CB2 agonist and will produce more β-galactosidase when treated with a CB1/CB2 inverse agonist.
The cells were grown in 96-well plates under standard cell culture conditions at 37° C. in a 5% CO2 atmosphere. After 3 days, the media was removed and a test compound in media (wherein the media was supplemented with 2 mM L-glutamine, […] sodium pyruvate, 0.1% low fatty acid FBS (fetal bovine serum) and antibiotics) was added to the cell. The plates were incubated for 30 minutes at 37° C. and the plate cells were then treated with forskolin over a 4-6 hour period, then washed and lysed. The β-galactosidase activity was quantitated using commercially available kit reagents (Promega Corp. Madison, Wis.) and a Vmax Plate Reader (Molecular Devices, Inc).
For cells expressing CRE β-gal and the CB1 receptor, CB1 agonists reduced β-galactosidase activity in a dose-dependent manner and CB1 inverse agonists increased β-galactosidase activity in a dose-dependent manner.
The change in β-galactosidase activity was determined by setting a vehicle treated cell's activity value at 100% and expressing the β-galactosidase activity measured in a corresponding compound treated cell as a percent of the vehicle treated cell activity.
The EC50 and IC50 values for compounds tested were calculated by linear regression and were obtained from studies in which varying compound concentrations were used.
The EC50 values for compounds tested were calculated by linear regression and were obtained from studies in which varying compound concentrations were used. Where an EC50 was not obtained, test results are provided as percent inhibition at a test concentration of 1 μM. ^aTest value in IC50; indicates agonist activity.

Experiment [2] addresses T1, human CB1 receptor. Briefly: Binding assay, cannabinoid CB1 receptor ([3H]-CP-55,940 displacement). On the set-up: expressed in transfected cells; host or cells: SK-N-MC cells, pcDNA3 CB-1 (human), semi-purified membranes. To be noted: for inhibition at 1 µM: test concentration 1 μM (superscript b). In outline: (§1)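 Displacement of 0.2 nM [3H]-CP-55,940 (non-specific: 10 uM WIN 55,212) was run on semi-purified membranes of transfected SK-N-MC cells carrying human CB-1 or CB-2, 90 min, 30° C, pH 7.5. Scintillation counting; IC50 by linear regression, else % inhibition at 0.2, 1 or 10 μM.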

The target of experiment [3] is T2, human CB-2 receptor (Homo sapiens, UniProt P34972).
T2 construct: expressed in transfected cells; host or cells: SK-N-MC cells, pcDNA3 CB-2 (human), semi-purified membranes
T2 sequence (P34972 whole entry): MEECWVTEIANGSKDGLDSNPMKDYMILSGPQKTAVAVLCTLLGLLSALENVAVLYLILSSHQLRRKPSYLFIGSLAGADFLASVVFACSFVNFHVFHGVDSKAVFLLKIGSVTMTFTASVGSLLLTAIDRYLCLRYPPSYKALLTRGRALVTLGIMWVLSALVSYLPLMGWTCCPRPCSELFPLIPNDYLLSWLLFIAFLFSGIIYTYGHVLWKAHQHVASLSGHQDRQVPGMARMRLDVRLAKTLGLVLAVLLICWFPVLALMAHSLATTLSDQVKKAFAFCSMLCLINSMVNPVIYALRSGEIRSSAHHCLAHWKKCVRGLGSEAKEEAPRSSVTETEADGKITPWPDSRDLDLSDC
Briefly: Binding assay, cannabinoid CB2 receptor ([3H]-CP-55,940 displacement). Particulars: for inhibition at 1 µM: test concentration 1 μM (superscript b), read-out: CB2 binding percent inhibition. An outline of the steps:
as §1

Setting [4] is: read-out: CB1 binding percent inhibition.

T1 sequence (P21554 whole entry): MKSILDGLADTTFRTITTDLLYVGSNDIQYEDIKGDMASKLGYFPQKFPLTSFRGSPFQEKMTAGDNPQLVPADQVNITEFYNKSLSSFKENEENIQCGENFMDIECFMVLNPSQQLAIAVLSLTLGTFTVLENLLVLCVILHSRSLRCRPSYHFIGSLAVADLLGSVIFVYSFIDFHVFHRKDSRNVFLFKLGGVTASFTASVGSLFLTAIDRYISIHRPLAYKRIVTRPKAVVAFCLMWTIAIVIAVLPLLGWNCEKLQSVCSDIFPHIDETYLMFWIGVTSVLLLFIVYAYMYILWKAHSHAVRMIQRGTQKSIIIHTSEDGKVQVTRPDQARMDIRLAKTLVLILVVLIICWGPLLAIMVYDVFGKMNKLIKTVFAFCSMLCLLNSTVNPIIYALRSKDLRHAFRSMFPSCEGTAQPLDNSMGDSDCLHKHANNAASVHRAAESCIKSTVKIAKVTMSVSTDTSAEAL

Consider `CC(NS(=O)(=O)/C=C/c1nn(Cc2ccccc2)c2c1C[S+]([O-])CC2)C1CCCCC1` (stereo not drawn) [Cpd 25, (E)-2-(1-benzyl-5-oxo-4,5,6,7-tetrahydro-1H-5λ^4-thiopyrano[4,3-c]pyrazol-3-yl)-ethenesulfonic acid (1-cyclohexyl-ethyl)amide], for which, in experiment [1], the inhibition at 1 µM is 1%. In experiment [2] (test concentration 10 μM (superscript c), 10 µM), the “CB1 binding percent inhibition” value was 0% and 6%.
Take `C[C@@H](NC(=O)c1nn(Cc2ccccc2)c2c1CS(=O)(=O)CC2)c1ccccc1` [Cpd 13, 1-benzyl-5,5-dioxo-4,5,6,7-tetrahydro-1H-5λ^6-thiopyrano[4,3-c]pyrazole-3-carboxylic acid [(1R)-1-phenyl-ethyl]-amide]: the inhibition at 1 µM in experiment [3] worked out at 55%; in experiment [2] (setting [4]), 38%. In experiment [1], the EC50 amounted to 7880 nM.
As for `C[C@H](NS(=O)(=O)/C=C/c1nn(Cc2ccccc2)c2c1CSCC2)c1ccccc1` [Cpd 3, (E)-2-(1-benzyl-1,4,6,7-tetrahydro-thiopyrano[4-3-c]pyrazol-3-yl)-ethenesulfonic acid [(1S)-1-phenyl-ethyl]-amide], the values for the inhibition at 1 µM in experiment [3], in experiment [1] and in experiment [2] (setting [4]) were 74%, 17% and 23%, respectively.
On to `C[C@@H](NC(=O)c1nn(Cc2ccccc2)c2c1CSCC2)c1ccccc1` [Cpd 1, 1-benzyl-1,4,6,7-tetrahydro-thiopyrano[4,3-c]pyrazole-3-carboxylic acid [(1R)-1-phenyl-ethyl]-amide], for which the IC50 in experiment [3] was found to be 62 nM; in experiment [1] it was 70 nM; in experiment [2], 160 nM.
With `CC12CCC(C1)C(C)(C)C2NC(=O)c1nn(Cc2ccccc2)c2c1C[S+]([O-])CC2` (stereo not drawn) [Cpd 21, 1-benzyl-5-oxo-4,5,6,7-tetrahydro-1H-5λ^4-thiopyrano[4,3-c]pyrazole-3-carboxylic acid (1,3,3-trimethyl-bicyclo[2.2.1]hept-2-yl)-amide], the results for the IC50 in experiment [3] and in experiment [1] were 56 nM and 6300 nM, respectively. The inhibition at 1 µM in experiment [2] (setting [4]) is 53%.
`C[C@@H](NC(=O)/C=C/c1nn(Cc2ccccc2)c2c1CSCC2)c1ccccc1` [Cpd 33, (2E)-3-(1-benzyl-1,4,6,7-tetrahydro-thiopyrano[4,3-c]pyrazol-3-yl)-N-[(1R)-1-phenyl-ethyl]-acrylamide] showed an IC50 in experiment [3] of 6800 nM. The inhibition at 1 µM is 24% in experiment [1] and 35% in experiment [2] (setting [4]). In addition, the inhibition at 10 µM in experiment [2] (test concentration 10 μM (superscript c), read-out: CB1 binding percent inhibition) is 9%.
Regarding `CC12CCC(C1)C(C)(C)C2NC(=O)c1nn(Cc2ccccc2)c2c1CSCC2` (stereo not drawn) [Cpd 19, 1-benzyl-1,4,6,7-tetrahydro-thiopyrano[4,3-c]pyrazole-3-carboxylic acid (1,3,3-trimethyl-bicyclo[2.2.1]hept-2-yl)-amide], the IC50 is 0.7 nM in experiment [3], 30 nM in experiment [1] and 5 nM in experiment [2].
On the same counts, the results for `CC12CCC(C1)C(C)(C)C2NC(=O)c1nn(Cc2ccccc2)c2c1CS(=O)(=O)CC2` (stereo not drawn) [Cpd 20, 1-benzyl-5,5-dioxo-4,5,6,7-tetrahydro-1H-5λ^6-thiopyrano[4,3-c]pyrazole-3-carboxylic acid (1,3,3-trimethyl-bicyclo[2.2.1]hept-2-yl)-amide] are 5 nM, 60 nM and 22 nM.

For the origin of these results see patent US7524964B2, “Tetrahydrothiopyrano pyrazole cannabinoid modulators” (Janssen Pharmaceutica NV, priority 2005, dated 2009).
